A short description of series [1]: The drug is tested on WLS-310 corresponding to human gut metagenome with ENA study accession number: PRJEB37062 and ENA sample accession number: ERS12561785 for biotransformation under anaerobic condition. The drug concentrations were measured over 9 timepoints collected between 0 and 24 hours of incubation by liquid-chromatography-coupled mass spectrometry (LC–MS). Conditions: 2 µM.

A short description of series [2]: The drug is tested on WLS-220 corresponding to human gut metagenome with ENA study accession number: PRJEB37062 and ENA sample accession number: ERS12561769 for biotransformation under anaerobic condition. The drug concentrations were measured over 9 timepoints collected between 0 and 24 hours of incubation by liquid-chromatography-coupled mass spectrometry (LC–MS). The following applies: 2 µM.

Series [3] in a line: The drug is tested on WLS-090 corresponding to human gut metagenome with ENA study accession number: PRJEB37062 and ENA sample accession number: ERS12561753 for biotransformation under anaerobic condition. The drug concentrations were measured over 9 timepoints collected between 0 and 24 hours of incubation by liquid-chromatography-coupled mass spectrometry (LC–MS). Conditions: 2 µM.

The conditions of series [4]: human gut metagenome, 24 h, 2 µM.
The conditions of series [5]: human gut metagenome, 24 h, 2 µM. The source holds these as a separate data set.
The conditions of series [6]: human gut metagenome, 24 h, 2 µM. The source holds these as a separate data set.
The conditions of series [7]: human gut metagenome, 24 h, 2 µM. The source holds these as a separate data set.
The conditions of series [8]: human gut metagenome, 24 h, 2 µM. The source holds these as a separate data set.
The conditions of series [9]: human gut metagenome, 24 h, 2 µM. This is another data set of the same source.
For series [10] the following is noted: human gut metagenome, 24 h, 2 µM. This is another data set of the same source.
For series [11] the following is noted: human gut metagenome, 24 h, 2 µM. This is another data set of the same source.
The conditions of series [12]: human gut metagenome, 24 h, 2 µM. This is another data set of the same source.
Note: call rule not given here.

In the case of `CNCC[C@H](Oc1cccc2ccccc12)c1cccs1` [DULOXETINE], the “Bacterial Biotransformation” value in [1] was “Compound metabolized”; in [2], “Compound NOT metabolized”; in series [3], “Compound metabolized”; in series [4], “Compound NOT metabolized”; in [5], “Compound NOT metabolized”; in series [6] it was “Compound NOT metabolized”. The “Bacterial Biotransformation” value is “Compound NOT metabolized” in [7]; “Compound NOT metabolized” in series [8]; “Compound metabolized” in series [9]; “Compound NOT metabolized” in [10]; “Compound NOT metabolized” in [11]; “Compound NOT metabolized” in [12].

Take `CC#CCn1c(N2CCC[C@@H](N)C2)nc2c1c(=O)n(Cc1nc(C)c3ccccc3n1)c(=O)n2C` [LINAGLIPTIN]: the “Bacterial Biotransformation” value in series [1], in [2], in series [3], in series [4], in series [5] and in series [6] was “Compound NOT metabolized” in each case. Further, the “Bacterial Biotransformation” value in series [7], in series [8], in [9], in series [10], in series [11] and in series [12] was “Compound NOT metabolized” throughout.

On to `CCOC(=O)C1=C(C)NC(C)=C(C(=O)OC)C1c1cccc([N+](=O)[O-])c1` (stereo not given) [NITRENDIPINE], for which the “Bacterial Biotransformation” value in series [1], in series [2], in series [3], in [4], in [5] and in [6] was “Compound metabolized” throughout. Moreover, the “Bacterial Biotransformation” value in [7], in series [8], in series [9], in [10], in series [11] and in [12] was “Compound metabolized” throughout.

With `Cc1nc(Nc2ncc(C(=O)Nc3c(C)cccc3Cl)s2)cc(N2CCN(CCO)CC2)n1` [DASATINIB ANHYDROUS], the “Bacterial Biotransformation” value in series [1] is on record as “Compound metabolized”; in [2] it was “Compound metabolized”; in series [3] it was “Compound metabolized”; in series [4], “Compound NOT metabolized”; in series [5] it was “Compound metabolized”; in series [6], “Compound metabolized”. The “Bacterial Biotransformation” value is “Compound metabolized” in series [7]; “Compound metabolized” in series [8]; “Compound metabolized” in series [9]; “Compound NOT metabolized” in series [10]; “Compound metabolized” in series [11]; “Compound NOT metabolized” in series [12].

As to `N#Cc1ccc2c(c1)N(CCCN1CCC(O)CC1)c1ccccc1S2` [PERICIAZINE], the “Bacterial Biotransformation” value is on record as “Compound metabolized” in series [1]; “Compound metabolized” in series [2]; “Compound metabolized” in series [3]; “Compound NOT metabolized” in [4]; “Compound NOT metabolized” in series [5]; “Compound metabolized” in series [6]. In addition, the “Bacterial Biotransformation” value in [7], in [8], in series [9], in series [10], in [11] and in [12] was “Compound NOT metabolized” each time.

Regarding `COCCCC/C(=N\OCCN)c1ccc(C(F)(F)F)cc1.O=C(O)/C=C\C(=O)O` [FLUVOXAMINE MALEATE], the “Bacterial Biotransformation” value is “Compound metabolized” in series [1]; “Compound metabolized” in series [2]; “Compound metabolized” in [3]; “Compound NOT metabolized” in [4]; “Compound metabolized” in series [5]; “Compound metabolized” in [6]. For the same compound, the “Bacterial Biotransformation” value in series [7] is “Compound metabolized”; in series [8], “Compound metabolized”; in [9], “Compound NOT metabolized”; in [10], “Compound NOT metabolized”; in series [11] it was “Compound metabolized”; in series [12] it was “Compound NOT metabolized”.

`O=C([O-])C[C@H](O)C[C@H](O)/C=C/c1c(C2CC2)nc2ccccc2c1-c1ccc(F)cc1.O=C([O-])C[C@H](O)C[C@H](O)/C=C/c1c(C2CC2)nc2ccccc2c1-c1ccc(F)cc1.[Ca+2]` [PITAVASTATIN CALCIUM]: the “Bacterial Biotransformation” value in series [1] was “Compound metabolized”; in [2], “Compound metabolized”; in [3], “Compound metabolized”; in [4] it was “Compound NOT metabolized”; in series [5], “Compound metabolized”; in series [6], “Compound metabolized”. For the same compound, the “Bacterial Biotransformation” value in series [7] was “Compound NOT metabolized”; in [8] it was “Compound metabolized”; in series [9], “Compound metabolized”; in series [10], “Compound NOT metabolized”; in [11] it was “Compound NOT metabolized”; in series [12], “Compound NOT metabolized”.

Turning to `CCCCC(=O)O[C@]1(C(=O)CO)[C@@H](C)C[C@H]2[C@@H]3CCC4=CC(=O)C=C[C@]4(C)[C@@]3(F)[C@@H](O)C[C@@]21C` [BETAMETHASONE VALERATE], the “Bacterial Biotransformation” value is given as “Compound metabolized” in series [1]; “Compound metabolized” in series [2]; “Compound metabolized” in series [3]; “Compound NOT metabolized” in series [4]; “Compound NOT metabolized” in series [5]; “Compound NOT metabolized” in [6]. Further, the “Bacterial Biotransformation” value in series [7] was “Compound NOT metabolized”; in [8] it was “Compound metabolized”; in series [9], “Compound metabolized”; in series [10], “Compound NOT metabolized”; in series [11] it was “Compound metabolized”; in [12] it was “Compound NOT metabolized”.

In the case of `CN(C)CCc1c[nH]c2ccc(CS(=O)(=O)N3CCCC3)cc12` [ALMOTRIPTAN], the “Bacterial Biotransformation” value in [1] is listed as “Compound metabolized”; in series [2], “Compound NOT metabolized”; in series [3], “Compound metabolized”; in series [4], “Compound NOT metabolized”; in series [5] it was “Compound NOT metabolized”; in [6], “Compound NOT metabolized”. Also, the “Bacterial Biotransformation” value in series [7] is on record as “Compound NOT metabolized”; in [8], “Compound metabolized”; in series [9], “Compound NOT metabolized”; in series [10], “Compound NOT metabolized”; in [11], “Compound NOT metabolized”; in series [12], “Compound NOT metabolized”.

As for `CN1CCN(C2=Nc3ccccc3Oc3ccc(Cl)cc32)CC1.O=C(O)CCC(=O)O` [LOXAPINE SUCCINATE], the “Bacterial Biotransformation” value in series [1], in [2], in series [3], in series [4], in series [5] and in [6] was “Compound NOT metabolized” throughout. The “Bacterial Biotransformation” value in series [7], in series [8], in series [9], in series [10], in series [11] and in series [12] was “Compound NOT metabolized” throughout.

Take `N[C@@H](Cc1ccc(N(CCCl)CCCl)cc1)C(=O)O`: the “Bacterial Biotransformation” value is given as “Compound metabolized” in series [2]; “Compound metabolized” in series [3]; “Compound NOT metabolized” in series [4]; “Compound metabolized” in [5]; “Compound metabolized” in [6]; “Compound NOT metabolized” in series [7]. Also, the “Bacterial Biotransformation” value in [8] is listed as “Compound metabolized”; in series [10] it was “Compound NOT metabolized”; in series [11], “Compound metabolized”; in series [12], “Compound metabolized”.

For the origin of these results see ChEMBL document CHEMBL5724914, “Linking interpersonal differences in gut microbiota composition and drug biotransformation activity” (2024).
